Data: ChEMBL document CHEMBL1141598, “Optimization of 1H-tetrazole-1-alkanenitriles as potent orally bioavailable growth hormone secretagogues” (Bioorg Med Chem Lett, 2008)

Columns and labels:
Rattus norvegicus = assay: Increase in plasma GH level in acute anesthetized iv dosed Wistar rat model; format: functional
Cytochrome P450 2C9 = Cytochrome P450 2C9 (Homo sapiens, UniProt P11712); assay: Inhibition of CYP2C9; format: ADME
Cytochrome P450 3A4 [1] = target: T1, Cytochrome P450 3A4 (Homo sapiens, UniProt P08684); assay: Inhibition of CYP3A4 using 7-benzyloxy-4-trifluoromethylcoumarin as a substrate; format: ADME
[2] = target: T2, Growth hormone secretagogue receptor type 1 (Homo sapiens, UniProt Q92847); assay: Agonist activity at human GHS receptor expressed in H4 glioma cells; format: cell-based
Cytochrome P450 2C19 = Cytochrome P450 2C19 (Homo sapiens, UniProt P33261); assay: Inhibition of CYP2C19; format: ADME
Cytochrome P450 3A4 [3] = target: T1, Cytochrome P450 3A4; assay: Inhibition of CYP3A4 using 7-benzyloxyresorufin as a substrate; format: ADME
[4] = target: T2, Growth hormone secretagogue receptor type 1; assay: Agonist activity at human GHS receptor expressed in H4 glioma cells assessed as intracellular calcium concentration by FLIPR assay; format: functional, cell-based
Cytochrome P450 1A2 = target: T3, Cytochrome P450 1A2 (Homo sapiens, UniProt P05177); assay: Inhibition of CYP1A2; format: ADME
T3 sequence (P05177 whole entry): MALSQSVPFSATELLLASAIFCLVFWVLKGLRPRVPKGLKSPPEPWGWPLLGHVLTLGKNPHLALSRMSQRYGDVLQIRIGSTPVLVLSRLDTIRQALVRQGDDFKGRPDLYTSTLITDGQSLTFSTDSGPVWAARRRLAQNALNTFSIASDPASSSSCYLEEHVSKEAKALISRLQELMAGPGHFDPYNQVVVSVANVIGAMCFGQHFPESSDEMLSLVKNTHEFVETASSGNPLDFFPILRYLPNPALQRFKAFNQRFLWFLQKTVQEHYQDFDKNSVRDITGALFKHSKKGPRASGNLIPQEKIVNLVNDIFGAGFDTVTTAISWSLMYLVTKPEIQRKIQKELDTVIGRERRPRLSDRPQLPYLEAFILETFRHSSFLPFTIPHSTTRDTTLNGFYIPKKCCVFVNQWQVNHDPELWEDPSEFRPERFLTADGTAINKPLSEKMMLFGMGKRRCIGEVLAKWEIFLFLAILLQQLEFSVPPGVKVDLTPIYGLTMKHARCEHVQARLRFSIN

Cytochrome P450 2D6 = Cytochrome P450 2D6 (Homo sapiens, UniProt P10635); assay: Inhibition of CYP2D6; format: ADME
[5] = Oral bioavailability in dog; format: ADME, organism-based, Canis lupus familiaris; details: in vivo
[6] = Oral bioavailability in rat; format: ADME, organism-based; details: in vivo

T1 sequence (P08684 whole entry): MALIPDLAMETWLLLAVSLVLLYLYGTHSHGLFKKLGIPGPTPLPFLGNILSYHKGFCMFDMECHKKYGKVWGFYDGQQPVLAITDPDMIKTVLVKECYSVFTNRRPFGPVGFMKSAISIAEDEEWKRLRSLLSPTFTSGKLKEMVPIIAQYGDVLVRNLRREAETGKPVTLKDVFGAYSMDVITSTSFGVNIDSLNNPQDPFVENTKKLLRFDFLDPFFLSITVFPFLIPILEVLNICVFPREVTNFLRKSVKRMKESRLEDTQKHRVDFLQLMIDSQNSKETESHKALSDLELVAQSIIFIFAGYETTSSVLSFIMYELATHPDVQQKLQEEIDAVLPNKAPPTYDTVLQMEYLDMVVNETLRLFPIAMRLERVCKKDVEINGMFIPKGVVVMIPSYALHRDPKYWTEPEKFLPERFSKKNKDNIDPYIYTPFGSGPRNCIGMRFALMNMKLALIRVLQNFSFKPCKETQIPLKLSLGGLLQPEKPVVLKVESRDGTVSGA
T2 sequence (Q92847 whole entry): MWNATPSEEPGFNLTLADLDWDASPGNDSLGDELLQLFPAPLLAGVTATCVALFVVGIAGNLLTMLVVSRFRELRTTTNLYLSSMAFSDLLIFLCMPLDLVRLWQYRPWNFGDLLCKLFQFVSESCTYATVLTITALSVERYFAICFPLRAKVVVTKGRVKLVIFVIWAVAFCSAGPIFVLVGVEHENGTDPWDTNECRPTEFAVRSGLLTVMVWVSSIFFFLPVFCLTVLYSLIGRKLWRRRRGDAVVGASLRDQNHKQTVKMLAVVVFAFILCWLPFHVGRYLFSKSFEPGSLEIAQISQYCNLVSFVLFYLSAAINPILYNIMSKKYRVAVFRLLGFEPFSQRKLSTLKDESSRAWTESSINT
Chain of Cytochrome P450 2D6 (P10635 whole entry): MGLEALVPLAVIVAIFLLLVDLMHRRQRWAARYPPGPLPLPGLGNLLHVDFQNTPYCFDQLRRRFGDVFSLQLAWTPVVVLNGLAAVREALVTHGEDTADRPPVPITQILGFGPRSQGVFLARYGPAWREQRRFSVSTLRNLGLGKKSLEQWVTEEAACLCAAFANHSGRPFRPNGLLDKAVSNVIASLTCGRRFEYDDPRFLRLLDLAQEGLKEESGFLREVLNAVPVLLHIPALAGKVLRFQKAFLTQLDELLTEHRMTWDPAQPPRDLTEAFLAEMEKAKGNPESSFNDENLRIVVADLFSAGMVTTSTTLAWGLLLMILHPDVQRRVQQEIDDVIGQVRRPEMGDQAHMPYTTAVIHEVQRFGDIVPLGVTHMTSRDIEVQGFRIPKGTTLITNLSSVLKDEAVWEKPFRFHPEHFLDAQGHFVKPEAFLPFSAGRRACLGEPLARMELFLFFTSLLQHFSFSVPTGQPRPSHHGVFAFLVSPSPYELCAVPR
Chain of Cytochrome P450 2C19 (P33261 whole entry): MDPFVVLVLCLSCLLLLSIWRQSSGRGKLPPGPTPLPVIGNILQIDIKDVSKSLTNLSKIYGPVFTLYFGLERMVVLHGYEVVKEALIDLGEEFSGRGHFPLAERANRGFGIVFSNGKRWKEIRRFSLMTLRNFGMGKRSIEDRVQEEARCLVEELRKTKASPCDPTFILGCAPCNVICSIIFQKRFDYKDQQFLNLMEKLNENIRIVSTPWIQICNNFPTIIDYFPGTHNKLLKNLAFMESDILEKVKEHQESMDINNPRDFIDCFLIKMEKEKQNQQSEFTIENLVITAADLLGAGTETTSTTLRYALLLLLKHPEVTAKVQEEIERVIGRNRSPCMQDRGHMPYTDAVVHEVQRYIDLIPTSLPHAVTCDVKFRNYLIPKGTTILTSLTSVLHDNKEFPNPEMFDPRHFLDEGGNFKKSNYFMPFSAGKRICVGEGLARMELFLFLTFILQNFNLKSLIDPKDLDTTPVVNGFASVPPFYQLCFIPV
Chain of Cytochrome P450 2C9 (P11712 whole entry): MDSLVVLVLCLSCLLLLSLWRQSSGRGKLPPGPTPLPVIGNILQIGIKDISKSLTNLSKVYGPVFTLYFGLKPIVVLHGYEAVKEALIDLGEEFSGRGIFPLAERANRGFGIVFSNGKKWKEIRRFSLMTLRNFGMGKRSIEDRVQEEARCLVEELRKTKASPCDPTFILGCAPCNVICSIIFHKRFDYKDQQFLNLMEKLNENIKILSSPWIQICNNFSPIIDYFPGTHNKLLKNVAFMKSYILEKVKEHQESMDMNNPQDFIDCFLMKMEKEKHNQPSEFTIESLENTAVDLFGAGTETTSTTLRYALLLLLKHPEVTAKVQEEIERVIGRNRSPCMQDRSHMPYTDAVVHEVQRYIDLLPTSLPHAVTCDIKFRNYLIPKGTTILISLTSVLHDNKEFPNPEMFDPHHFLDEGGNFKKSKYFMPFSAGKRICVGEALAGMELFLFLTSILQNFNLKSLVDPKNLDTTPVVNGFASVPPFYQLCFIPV

Row | SMILES | Ki [2] [nM] | EC50 [4] [nM] | further results
1 | CC(C)(N)C(=O)N[C@H](COCc1ccccc1)c1nnnn1CCC#N | – | – | ED250 (Rattus norvegicus): 4.8 µmol/kg
2 | CC(C)(N)C(=O)N[C@H](COCc1ccccc1)c1nnnn1[C@H](CC#N)COc1ccccc1O | 5.7 | 0.3 | IC50 (Cytochrome P450 2C9): > 66000 nM; IC50 (Cytochrome P450 3A4 [1]): 9800 nM; IC50 (Cytochrome P450 2C19): 42000 nM; IC50 (Cytochrome P450 3A4 [3]): 5500 nM; ED250 (Rattus norvegicus): <0.15 µmol/kg; IC50 (Cytochrome P450 1A2): > 66000 nM; IC50 (Cytochrome P450 2D6): 5100 nM
3 | CC(C)(N)C(=O)N[C@H](COCc1ccccc1)c1nnnn1[C@@H](CC#N)COc1ccccn1 | 503 | 19 | –
4 | CC(C)(N)C(=O)N[C@H](COCc1ccccc1)c1nnnn1[C@H](CC#N)COc1ccccn1 | 40 | 0.4 | IC50 (Cytochrome P450 2C9): > 100000 nM; IC50 (Cytochrome P450 3A4 [1]): 59000 nM; IC50 (Cytochrome P450 2C19): 33000 nM; IC50 (Cytochrome P450 3A4 [3]): 11000 nM; ED250 (Rattus norvegicus): 0.33 µmol/kg; bioavailability [5]: 55%; bioavailability [6]: 24%; IC50 (Cytochrome P450 1A2): > 100000 nM; IC50 (Cytochrome P450 2D6): > 100000 nM
5 | CC(C)(N)C(=O)N[C@H](COCc1ccccc1)c1nnnn1[C@@H](CC#N)COc1ccccc1 | 197 | 19 | –
6 | CC(C)(N)C(=O)N[C@H](COCc1ccccc1)c1nnnn1[C@H](CC#N)COc1ccccc1 | 7.5 | 0.4 | ED250 (Rattus norvegicus): 0.87 µmol/kg
7 | CC(C)(N)C(=O)N[C@H](COCc1ccccc1)c1nnnn1[C@@H](CC#N)COc1ccccc1O | 240 | 23 | –
8 | CC(C)(N)C(=O)N[C@H](COCc1ccccc1)c1nnn(CCC(C#N)c2ccccc2)n1 (mixture of isomers) | > 5000 | 302 | –
9 | CC(C)(N)C(=O)N[C@H](COCc1ccccc1)c1nnnn1CCC(C#N)c1ccccc1 (mixture of isomers) | 611 | 27 | –
10 | CC(C)(N)C(=O)N[C@H](COCc1ccccc1)c1nnnn1CC(C#N)Cc1ccccc1 (mixture of isomers) | 298 | 22 | –
11 | CC(C)(N)C(=O)N[C@H](COCc1ccccc1)c1nnn(CC(C#N)Cc2ccccc2)n1 (mixture of isomers) | > 5000 | 2470 | –
12 | CC(C)(N)C(=O)N[C@H](COCc1ccccc1)c1nnnn1C(CC#N)COc1ccccc1F (single isomer, unassigned; diastereomer 1) | 18 | 0.6 | –
13 | CC(C)(N)C(=O)N[C@H](COCc1ccccc1)c1nnn(C(/C=C/c2ccccc2)CC#N)n1 (single isomer, unassigned; diastereomer 1) | 453 | 19 | –
14 | CC(C)(N)C(=O)N[C@H](COCc1ccccc1)c1nnn(C(CC#N)CCc2ccccc2)n1 (single isomer, unassigned; diastereomer 1) | 2560 | 150 | –
15 | CC(C)(N)C(=O)N[C@H](COCc1ccccc1)c1nnnn1C(CC#N)CCc1ccccc1 (single isomer, unassigned; diastereomer 1) | 63 | 0.8 | ED250 (Rattus norvegicus): 1.7 µmol/kg
16 | CC(C)(N)C(=O)N[C@H](COCc1ccccc1)c1nnnn1C(/C=C/c1ccccc1)CC#N (single isomer, unassigned; diastereomer 1) | 12 | 0.5 | ED250 (Rattus norvegicus): >2 µmol/kg
17 | CC(C)(N)C(=O)N[C@H](COCc1ccccc1)c1nnnn1C(CC#N)COc1ccccc1F (single isomer, unassigned; diastereomer 2) | 696 | 64 | –
18 | CC(C)(N)C(=O)N[C@H](COCc1ccccc1)c1nnn(C(/C=C/c2ccccc2)CC#N)n1 (single isomer, unassigned; diastereomer 2) | 2510 | 202 | –
19 | CC(C)(N)C(=O)N[C@H](COCc1ccccc1)c1nnn(C(CC#N)CCc2ccccc2)n1 (single isomer, unassigned; diastereomer 2) | 3940 | 244 | –
20 | CC(C)(N)C(=O)N[C@H](COCc1ccccc1)c1nnnn1C(CC#N)CCc1ccccc1 (single isomer, unassigned; diastereomer 2) | 1380 | 139 | –
21 | CC(C)(N)C(=O)N[C@H](COCc1ccccc1)c1nnnn1C(/C=C/c1ccccc1)CC#N (single isomer, unassigned; diastereomer 2) | 737 | 62 | –
